Assay results published in publication PMC12670426 (Journal of Medicinal Chemistry, 2025).
Read-outs that look alike come from different tables or passages of the source.

Tests used:
[1] = Plasma stability assay, human plasma; format: in vitro ADME; settings: pooled plasma, 37 °C
Procedure: (§1) Test compounds (10 μM) were incubated with mouse, rat, or human pooled plasma from 50 donors (Biowest) at 37 °C for 20, 60, and 120 min. Reactions were terminated by adding four volumes of ice-cold methanol, followed by vigorous mixing. Samples were kept at −20 °C for 30 min and then stored at 4 °C overnight. The next day, samples were centrifuged, and supernatants were diluted with four volumes of 30% methanol in water. Zero time points were prepared by adding ice-cold methanol to the compound prior to the addition of plasma. Samples were then analyzed on an Echo MS system (SCIEX) using multiple reaction monitoring (MRM). The only exception was compound 3af, which was analyzed by LC–MS/MS (SCIEX 6500 triple quadrupole) due to its weak ionization in Echo-MS.

[2] = Plasma stability assay, mouse plasma; format: in vitro ADME; settings: 37 °C
Procedure: as §1

[3] = Plasma stability assay, rat plasma; format: in vitro ADME; settings: 37 °C
Procedure: as §1

[4] = Microsomal stability assay, human liver microsomes; format: in vitro ADME; settings: pooled liver microsomes, pH 7.4, human liver microsomes 0.5 mg/mL, NADPH
Procedure: (§2) Microsomal stability was determined using 0.5 mg/mL of pooled human, mouse, or rat liver microsomes (Thermo Fisher Scientific) in 90 mM TRIS-Cl buffer (pH 7.4) containing 2 mM NADPH and 2 mM MgCl2. Test compounds (10 μM) were added, and the resulting mixture was incubated at 37 °C for 10, 60, 120, and 180 min. The reactions were terminated by the addition of four volumes of ice-cold methanol, followed by vigorous mixing. The samples were left at −20 °C for 30 min and then stored at 4 °C overnight. The next day, samples were centrifuged, and supernatants were diluted with four volumes of 30% methanol in water. Zero time points were prepared by adding ice-cold methanol to the mixture of compounds and cofactors prior to the addition of microsomes. The samples were then analyzed using the Echo-MS system (SCIEX) with MRM transition monitoring, except for compound 3af, which was analyzed by LC–MS/MS as described in the plasma stability assay.

[5] = Microsomal stability assay, mouse liver microsomes; format: in vitro ADME; settings: pooled liver microsomes, pH 7.4, mouse liver microsomes 0.5 mg/mL, NADPH
Procedure: as §2

[6] = Microsomal stability assay, rat liver microsomes; format: in vitro ADME; settings: pooled liver microsomes, pH 7.4, rat liver microsomes 0.5 mg/mL, NADPH
Procedure: as §2

[7] = Cytotoxicity assay, HEK293; format: cell-based; settings: human, HEK293 cells, viability dye, flow cytometry
Procedure: (§3) To evaluate in vitro cytotoxicity and support its potential application in inflammatory and fibrotic disease models, the following panel of cell lines, representing the relevant biological systems, was used: HEK293, HepG2, THP1, Jurkat E6.1, and LX2. HEK293, HepG2, and Jurkat E6.1 cells were seeded at 400,000 cells/mL, THP1 cells at 500,000 cells/mL, and LX2 cells at 200,000 cells/mL in 96-well plates (cell culture-treated, VWR) in 100 μL/well. Cells were treated with the tested compounds in a serial dilution (300, 100, 33.3, 11.1, and 3.7 μM) for 24 h. Untreated cells served as negative controls to establish the baseline viability threshold. Cell viability was assessed using a viability dye (Zombie Violet Fixable Viability Kit, BioLegend) following the manufacturer’s instructions and analyzed by flow cytometry (see below).
(§4) Cells or beads from screening assays prepared for flow cytometry were analyzed by the CytoFlex S instrument (Beckman Coulter). Data acquisition was performed using CytExpert software (v2.5, Beckman Coulter). Debris was excluded by forward and side scatter gating, followed by doublet exclusion. Data were analyzed using FlowJo software (v10, BD Biosciences).

[8] = Cytotoxicity assay, HepG2; format: cell-based; settings: human, HepG2 cells, viability dye, flow cytometry
Procedure: as §3, §4

[9] = Cytotoxicity assay, THP1; format: cell-based; settings: human, THP1 cells, viability dye, flow cytometry
Procedure: as §3, §4

[10] = Cytotoxicity assay, Jurkat E6.1; format: cell-based; settings: human, Jurkat E6.1 cells, viability dye, flow cytometry
Procedure: as §3, §4

[11] = Cytotoxicity assay, LX2; format: cell-based; settings: human, LX2 cells, viability dye, flow cytometry
Procedure: as §3, §4

[12] = Cytotoxicity assay, panel of five human cell lines; format: cell-based; settings: HEK293, HepG2, THP-1, Jurkat E6.1 and LX2 cells; summary in text across panel of five human cell lines
Procedure: as §3, §4

[13] = target: T1, intracellular Gal-3 in THP1 cells (Homo sapiens, UniProt P17931); assay: Intracellular Gal-3 target engagement in THP1 cells (flow cytometry, MFI); format: cell-based; settings: 2 h
T1 construct: Untreated cells served as negative and baseline controls representing maximum intracellular Gal-3 levels; endogenous in cells; host or cells: THP1 (monocyte-like or PMA-differentiated macrophage-like)
T1 sequence (P17931 whole entry): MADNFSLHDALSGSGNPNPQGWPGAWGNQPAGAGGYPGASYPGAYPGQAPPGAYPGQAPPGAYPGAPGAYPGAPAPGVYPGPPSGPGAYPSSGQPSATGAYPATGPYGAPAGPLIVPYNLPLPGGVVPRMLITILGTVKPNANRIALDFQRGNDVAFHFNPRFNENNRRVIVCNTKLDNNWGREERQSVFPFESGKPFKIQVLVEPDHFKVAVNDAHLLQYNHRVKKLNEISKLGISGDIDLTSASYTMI
Procedure: THP1 cells were used to assess the binding of the tested compounds to Gal-3. Cells were either maintained in suspension as undifferentiated monocyte-like cells or differentiated into macrophage-like cells by overnight treatment with phorbol 12-myristate 13-acetate (PMA, Sigma-Aldrich) at a final concentration of 10 ng/mL. […] Untreated cells served as negative and baseline controls representing maximum intracellular Gal-3 levels. Cells were then harvested and intracellularly stained either with galectin-3 monoclonal antibody eF660 (Invitrogen, Thermo Fisher Scientific) or a relevant isotype antibody (Invitrogen, Thermo Fisher Scientific) for flow cytometric analyses (see below). A dose-dependent decrease in Gal-3 signal upon compound treatment was used to assess intracellular target engagement expressed as median fluorescent intensity (MFI).
as §4

[14] = tested on: LPS-stimulated macrophage-like THP1 cells (TNFα secretion); assay: Anti-inflammatory potential: TNFα secretion in LPS-stimulated PMA-differentiated THP1 cells; format: cell-based, human; settings: (+)PMA THP1, 1 μg/mL LPS, 24 h, up to 300 μM
Procedure: Cells were differentiated overnight into macrophage-like phenotypes by treatment with 10 ng/mL PMA and subsequently stimulated with 1 μg/mL lipopolysaccharide (LPS; Invitrogen, Thermo Fisher Scientific) to induce a proinflammatory response. […] After 24 h of LPS and compound exposure, cell culture supernatants were collected and analyzed for TNFα levels using a bead-based multiplex immunoassay (ProcartaPlex Human Basic Kit and TNFα Human ProcartaPlex Simplex Kit, both Invitrogen, Thermo Fisher Scientific). Flow cytometry readout was used as previously described. TNFα concentrations were calculated using a standard curve generated in GraphPad Prism 10 (GraphPad Software, San Diego, CA). Cells or beads from screening assays prepared for flow cytometry were analyzed by the CytoFlex S instrument (Beckman Coulter). Data acquisition was performed using CytExpert software (v2.5, Beckman Coulter). Debris was excluded by forward and side scatter gating, followed by doublet exclusion. Data were analyzed using FlowJo software (v10, BD Biosciences).

[15] = target: Gal-1; settings: previously reported inhibitor, Figure 1A; ref Galecto Biotech; cited from earlier work
[16] = target: Gal-3C; settings: read-out: Kd (Gal-3C); previously reported inhibitor, Figure 1A; ref Galecto Biotech; cited from earlier work
[17] = target: galectin CRD; set-up: method as in not given; settings: endogenous ligand binding the galectin CRD; literature value, ref not given; cited from earlier work
[18] = target: Gal-1; assay: Direct binding fluorescence polarization of the fluorescent probe, Gal-1; set-up: species or system human; settings: [probe] 100 nM, mean ± SD
Procedure: (§5) Fluorescence polarization measurements were performed at 25 °C using a Tecan Spark multiplate reader (Tecan, Switzerland) with excitation at 485 ± 20 nm and emission at 535 ± 20 nm in a 384-well black polystyrene microplate (Corning 4514, USA). Dissociation constants of the probe (K d ^*) were determined by fitting the binding data with a quadratic model for direct binding using the BindCurve package. Additional details on the model, probe concentrations, and fitting parameters are provided in the Supporting Information.
(§6) Fluorescence polarization
(§7) Direct binding was modeled by a quadratic model, which is written as […]
(§8) where r corresponds to the measured anisotropy, rmin corresponds to the anisotropy of the free probe (labeled ligand), and rmax corresponds to maximal anisotropy, which is achieved when all molecules of the probe are bound to the receptor. Kd∗ is the dissociation constant of the probe and [R] is the concentration of free receptor. [R] is determined by a quadratic equation […]
(§9) where [L∗]T is the total concentration of the probe and [R]T is the total concentration of the receptor. Using quadratic formula, the positive root is calculated as […]
(§10) Table S1. Calculated Kd∗ values, total concentrations of the fluorescent probe, and model asymptotes from direct binding experiments. […]
(§11) a K∗ values are expressed as mean ± SD from two independent experiments, each performed […]

[19] = target: T2, Gal-3C (Homo sapiens, UniProt P17931); assay: Direct binding fluorescence polarization of the fluorescent probe, Gal-3C; settings: [probe] 5 nM, mean ± SD
T2 construct: only the C-terminal domain was used (Gal-3C); 6xHis tag with TEV protease site (N, cleaved yes); made in house; host or cells: BL21 Escherichia coli (pET-15b)
T2 sequence (P17931 118-248 limits assumed): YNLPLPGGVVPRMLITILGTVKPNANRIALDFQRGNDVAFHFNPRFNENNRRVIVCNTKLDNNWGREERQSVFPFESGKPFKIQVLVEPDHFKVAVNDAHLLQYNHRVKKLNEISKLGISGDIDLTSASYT
Procedure: as §5, §6, §7, §8, §9, §10, §11

SMILES: OC[C@H]1O[C@@H](S[C@@H]2O[C@H](CO)[C@H](O)[C@H](n3cc(-c4cccc(F)c4)nn3)[C@H]2O)[C@H](O)[C@@H](n2cc(-c3cccc(F)c3)nn2)[C@H]1O [GB0139, reference compound]
- remaining at 2 h, 10 μM [1]: 110 ± 5%
- remaining at 2 h, 10 μM [2]: 68 ± 3%
- remaining at 2 h, 10 μM [3]: 78 ± 8%
- microsomal CLint at 10 μM [4]: 12 ± 6 µL/min/mg
- microsomal CLint at 10 μM [5]: 6 ± 5 µL/min/mg
- microsomal CLint at 10 μM [6]: < 2 µL/min/mg
- CC50 at 24 h [7]: > 300 µM
- CC50 at 24 h [8]: > 300 µM
- CC50 at 24 h [9]: > 300 µM
- CC50 at 24 h [10]: > 300 µM
- CC50 at 24 h [11]: > 300 µM
- CC50 at 24 h [12]: > 300 µM
- intracellular Gal-3 signal (MFI), macrophage-like THP1 cells ([13]; (+)PMA differentiated THP1, 3.7–300 μM): reduced the Gal-3 signal
- intracellular Gal-3 signal (MFI), monocyte-like THP1 cells ([13]; (−)PMA undifferentiated THP1, 3.7–300 μM): minimal effect
- LPS-induced TNFα secretion [14]: effectively reduced TNFα secretion
- Kd [15]: 0.012 µM
- Kd [16]: 0.014 µM

SMILES: CC(=O)N[C@H]1C(O)O[C@H](CO)[C@@H](O[C@@H]2O[C@H](CO)[C@H](O)[C@H](O)[C@H]2O)[C@@H]1O (some centres unmarked) [LacNAc, N-acetyllactosamine]
- Kd [17]: ~100 µM

SMILES: O=C(NCc1cn([C@H]2[C@@H](O)[C@@H](CO)O[C@@H](S[C@@H]3O[C@H](CO)[C@H](O)[C@H](n4cc(-c5cccc(F)c5)nn4)[C@H]3O)[C@@H]2O)nn1)c1ccc2c(c1)C(=O)OC21c2ccc(O)cc2Oc2cc(O)ccc21 [fluorescent probe, 3-deoxy-3-[4-(fluorescein-5-yl-carbonylaminomethyl)-1H-1,2,3-triazol-1-yl]-β-D-galactopyranosyl-3-deoxy-3-[4-(3-fluorophenyl)-1H-1,2,3-triazol-1-yl]-1-thio-β-D-galactopyranoside]
- Kd [18]: 0.74 ± 0.009 µM
- Kd [19]: 0.022 ± 0.002 µM
